ChEMBL document CHEMBL1201862, “PubChem BioAssay data set” (2004)
Active and inactive are the calls of the source.

Experiments:
[1] = cytotoxicity toward HT-29 cells – cell-based, CellTiter-Glo luminescence, IC50, dose response (AID 1117330); assay type: functional
[2] = RKO cell viability reduction, dose response, CellTiter-Glo luminescence (AID 1117322); assay type: functional
[3] = CellTiter-Glo luminescent dose response of DLD-1 viability loss (AID 1117352); assay type: functional
[4] = cytotoxicity toward HCT116 cells – cell-based, CellTiter-Glo luminescence, IC50, dose response (AID 1117332); assay type: functional; conditions: HCT-116
[5] = HeLa 4N DNA content increase, dose response, cell-based, IC50 (AID 1117351); assay type: functional
[6] = cytotoxicity toward Colo320 cells – cell-based, CellTiter-Glo luminescence, IC50, dose response (AID 1117334); assay type: functional; conditions: COLO 320
[7] = HeLa 2N DNA content increase, dose response, cell-based, IC50 (AID 1117349); assay type: functional
[8] = HCT116 cell viability decrease, GSK3B pretreatment – CellTiter-Glo, IC50, dose response (AID 1117339); assay type: functional; conditions: HCT-116
[9] = Concentration-dependent survival of SW480 colon cancer line, luminescence detection with CellTiter-Glo, half-maximal inhibitory concentration (AID 1117338); assay type: functional
[10] = SNU-C1 cell viability reduction, dose response, CellTiter-Glo luminescence (AID 1117323); assay type: functional, cell-based
[11] = test system: INS1; assay: beta cell apoptosis inhibitors, cytokine rescue, dose response, luminescence, retest (AID 449756); assay type: functional, cell-based; conditions: Rattus norvegicus;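 further: cell death triggered by IL-1 beta plus TNF-alpha plus IFN-gamma mixture; protective hits raise ATP signal compared with cytokine alone wells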
[12] = Artemis endonuclease inhibitor potency, dose response, biochemical, fluorescence intensity (AID 720701); assay type: functional;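 further: Artemis endonuclease enzyme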
[13] = cytotoxicity in primary human melanocytes, dose response, cytotoxicity control, cell-based, plate reader, dry powder (AID 651920); assay type: functional
[14] = SK-MEL-5 parental cell viability reduction, dose response, orthogonal assay for MITF inhibitor project, CellTiter-Glo luminescence, dry powder, set 8 (AID 651586); assay type: functional, cell-based
[15] = MITF Measured in Cell-Based System Using Plate Reader - 2084-01_Inhibitor_Dose_DryPowder_Activity_Set6.; assay type: functional
[16] = MITF Measured in Cell-Based System Using Plate Reader - 2084-01_Inhibitor_Dose_DryPowder_Activity_Set7.; assay type: functional
[17] = MITF Orthogonal Assay: MALME3 CTG Assay Measured in Cell-Based System Using Plate Reader - 2084-04_Inhibitor_Dose_DryPowder_Activity_Set6.; assay type: functional; conditions: MALME-3
[18] = SK-MEL-5 parental line viability, dose response, MITF inhibitor project, cell-based, CellTiter-Glo, dry powder, set 6 (AID 624429); assay type: functional
[19] = TRPM1 promoter luciferase reporter signal decrease, dose response, MITF inhibitor project, cell-based, SK-MEL-5, dry powder, set 9 (AID 651588); assay type: functional
[20] = A375 melanoma cell cytotoxicity, dose response, counter-screen for MITF inhibitor project, CellTiter-Glo luminescence, dry powder, set 7 (AID 624490); assay type: functional, cell-based; conditions: A-375
[21] = A375 melanoma cell viability loss, dose response, counter-screen for MITF inhibitor project, CellTiter-Glo luminescence, dry powder, set 4 (AID 624364); assay type: functional, cell-based; conditions: A-375;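 further: A375 melanoma cells are MITF independent so this is a counter screen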
[22] = MALME3 melanoma cell viability reduction, dose response, orthogonal assay for MITF inhibitor project, CellTiter-Glo luminescence, dry powder, set 5 (AID 651584); assay type: functional, cell-based; conditions: MALME-3
[23] = MITF Orthogonal Assay: SK-MEL-5 CTG Assay Measured in Cell-Based System Using Plate Reader - 2084-02_Inhibitor_Dose_DryPowder_Activity_Set5.; assay type: functional
[24] = C. albicans growth with fluconazole, confirmation, fluorescence, retest (AID 2467); assay type: functional, cell-based
[25] = biological target: T1, Interleukin-8 (Homo sapiens, UniProt P10145); assay: Dose Response confirmation of uHTS small molecule hits for cystic fibrosis induced NFkb Inhibitors in a PAF-induced IL8 counterscreen.; assay type: functional; conditions: read-out: IC50_Mean
T1 sequence (P10145 whole entry): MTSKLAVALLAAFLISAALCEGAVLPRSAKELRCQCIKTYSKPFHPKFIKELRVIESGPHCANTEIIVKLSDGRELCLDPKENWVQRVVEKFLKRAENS

[26] = NIH-3T3 fibroblast cytotoxicity, dose response, cytotoxicity control, cell-based, fluorescence, Alamar Blue, secondary assay (AID 2327); assay type: functional;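 further: NIH-3T3 mouse fibroblasts cultured with fluconazole at 8 µg/mL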
[27] = biological target: Kallikrein-7 (Homo sapiens, UniProt P49862); assay: Fluorescence Intensity-based biochemical primary high throughput dose response assay to identify activators of kallikrein-7 (K7) zymogen.
Kallikrein-7, sequence (P49862 whole entry): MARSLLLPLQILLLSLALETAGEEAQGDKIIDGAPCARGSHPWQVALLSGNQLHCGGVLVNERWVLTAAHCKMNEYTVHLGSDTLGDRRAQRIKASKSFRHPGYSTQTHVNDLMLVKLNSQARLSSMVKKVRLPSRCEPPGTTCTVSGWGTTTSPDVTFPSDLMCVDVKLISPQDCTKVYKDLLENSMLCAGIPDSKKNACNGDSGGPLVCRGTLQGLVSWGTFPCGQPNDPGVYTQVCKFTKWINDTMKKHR

[28] = cytotoxicity in HepG2 cells, dose response, cytotoxicity control, cell-based, plate reader, dry powder (AID 651947); assay type: functional
[29] = biological target: Paired box protein Pax-8 (Homo sapiens, UniProt Q06710); assay: inhibitors of PAX8-driven TPO luciferase reporter, dose response, RMG-I cells, cherry-pick (AID 687027); assay type: functional, cell-based;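 further: luciferase reporter driven by Pax8 target thyroperoxidase promoter measured by SteadyGlo luminescence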
Paired box protein Pax-8, sequence (Q06710 whole entry): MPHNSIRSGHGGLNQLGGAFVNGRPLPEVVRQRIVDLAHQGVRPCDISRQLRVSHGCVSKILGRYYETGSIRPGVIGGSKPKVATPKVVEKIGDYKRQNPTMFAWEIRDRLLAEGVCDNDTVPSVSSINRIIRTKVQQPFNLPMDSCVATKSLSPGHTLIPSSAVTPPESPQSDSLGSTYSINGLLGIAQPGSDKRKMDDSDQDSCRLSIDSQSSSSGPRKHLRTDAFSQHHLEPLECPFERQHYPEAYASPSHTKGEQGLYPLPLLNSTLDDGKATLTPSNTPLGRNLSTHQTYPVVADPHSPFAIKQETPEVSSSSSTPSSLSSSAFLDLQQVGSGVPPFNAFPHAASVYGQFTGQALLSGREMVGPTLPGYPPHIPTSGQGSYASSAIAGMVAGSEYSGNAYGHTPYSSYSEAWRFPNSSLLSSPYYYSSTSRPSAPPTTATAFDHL

[30] = IGROV1 ovarian cancer cell cytotoxicity, dose response, PAX8 inhibitor project, plate reader, dry powder samples (AID 743043); assay type: functional, cell-based; conditions: IGROV-1
[31] = cytotoxicity in OVCAR8 ovarian cancer cells, dose response, PAX8 project, cell-based, plate reader, dry powder samples (AID 743197); assay type: functional; conditions: OVCAR-8
[32] = IOSE-T80 ovarian epithelial cell cytotoxicity, dose response, cytotoxicity control for PAX8 inhibitor project, plate reader, dry powder samples (AID 743045); assay type: functional, cell-based
[33] = NIH:OVCAR-3 ovarian cancer cell cytotoxicity, dose response, PAX8 inhibitor project, plate reader, dry powder samples (AID 743044); assay type: functional, cell-based

O=C(O)CN(CCN(CC(=O)O)CC(=O)O)CCN(CC(=O)O)CC(=O)O [PENTETIC ACID]
active: IC50 [2] 2.96 µM | IC50 [8] 0.896 µM | IC50 [9] 3.14 µM
inactive: IC50 [1] > 20 µM | IC50 [3] > 20 µM | IC50 [4] > 6.67 µM | IC50 [5] > 10 µM | IC50 [6] > 20 µM | IC50 [7] > 10 µM | IC50 [10] > 20 µM

c1ccc(-c2nnc3sc(-c4csc5c4CCCC5)nn23)cc1
active: AC50 [11] 64.1 µM
inactive: IC50 [12] > 20 µM

O=C1C=C(NS(=O)(=O)c2ccccc2)C(=O)c2ccccc21
inactive: AC50 [20] > 70 µM | AC50 [21] > 70 µM
active: AC50 [13] 59.4 µM | AC50 [14] 18.4 µM | AC50 [15] 3.04 µM | AC50 [16] 4.57 µM | AC50 [17] 21.3 µM | AC50 [18] 10.5 µM | AC50 [19] 13 µM | AC50 [22] 21.3 µM | AC50 [23] 10.3 µM

COc1ccc(-c2cc(=O)oc3cc(OC(=O)C4CCCCC4)c(Cl)cc23)cc1
active: EC50 [24] 1.9 µM | IC50 [25] 4.55 µM | EC50 [26] 34.6 µM
inactive: EC50 [27] > 69.5 µM

FC(F)(F)c1ccc(CSc2nnc(-c3ccccc3)o2)cc1
active: AC50 [28] 0.223 µM

O=C(NC1CCCCC1)N1C[C@@H]2N[C@H](C1)[C@@H]2c1ccc(-c2ccc(F)cc2)cc1
active: AC50 [29] 17.2 µM | AC50 [30] 63.7 µM | AC50 [32] 45.7 µM | AC50 [33] 22 µM
inactive: AC50 [31] > 70 µM
